Source: patent US12053447B2, “Oral solution and powder to liquid compositions of balsalazide” (NuBioPharma, LLC, priority 2019, dated 2024)
Residues, ends and D or L forms follow the SMILES beside them.

What was measured:
[1] = Stability of sweetener aspartame in solution; assay type: physicochemical; conditions: pH 7.0 and above
[2] = Storage stability of liquid balsalazide solution (HPLC assay, settling); assay type: physicochemical
Experimental: The storage stability of two balsalazide disodium solutions, 750 mg/5 ml, with the formulations described in TABLE 6 and TABLE 7 with pH of 4.8 and pH 7.2, respectively were subjected to accelerated stability testing at 40° C. and at room temperature (25° C.). Balsalazide solutions stored in amber PVC bottles (30 ml volume) were tested over a 90-day storage period. The amount of balsalazide and its known impurities were determined by a validated high pressure liquid chromatography (HPLC) assay after 0 day (initial), 45 days, and 90 days and results are shown in TABLE 6 below. Five minor impurities (less than 0.1% each) were identified in balsalazide solution initially on day 0.

stability in solution [1]	stability of oral solution ([2]; acidic conditions of pH below 7.0)	stability of oral solution ([2]; pH of 7.0 or higher)	SMILES
unstable			COC(=O)[C@H](Cc1ccccc1)NC(=O)[C@@H](N)CC(=O)O [aspartame] (H-Asp-Phe-OMe)
	unstable	stable	O=C(O)CCNC(=O)c1ccc(/N=N/c2ccc(O)c(C(=O)O)c2)cc1 [balsalazide]
